Experiment in all cases: Figure S2a opioid peptide screen on chemokine receptors
What all share (format): cell-based
Common to all, as to design: dose or concentration left out as unconfirmed

The target of one test is T1, CCR2 (Homo sapiens, UniProt P41597).
T1 construct: expressed in transfected cells
T1 sequence (P41597 1-360 isoform P41597-2): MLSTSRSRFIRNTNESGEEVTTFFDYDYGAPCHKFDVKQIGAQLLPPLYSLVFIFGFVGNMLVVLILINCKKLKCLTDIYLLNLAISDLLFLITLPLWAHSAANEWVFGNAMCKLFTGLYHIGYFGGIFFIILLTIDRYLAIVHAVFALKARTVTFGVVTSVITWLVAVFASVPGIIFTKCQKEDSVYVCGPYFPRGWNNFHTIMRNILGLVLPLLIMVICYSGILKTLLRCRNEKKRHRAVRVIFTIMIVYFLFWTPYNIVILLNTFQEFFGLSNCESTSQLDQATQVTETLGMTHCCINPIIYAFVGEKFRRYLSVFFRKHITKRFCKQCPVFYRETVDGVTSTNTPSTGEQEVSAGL

The next test has as its target T2, CCR5 (Homo sapiens, UniProt P51681).
T2 construct: expressed in transfected cells

The next test addresses T3, CCR10 (Homo sapiens, UniProt P46092).
T3 construct: expressed in transfected cells
T3 sequence (P46092 1-362): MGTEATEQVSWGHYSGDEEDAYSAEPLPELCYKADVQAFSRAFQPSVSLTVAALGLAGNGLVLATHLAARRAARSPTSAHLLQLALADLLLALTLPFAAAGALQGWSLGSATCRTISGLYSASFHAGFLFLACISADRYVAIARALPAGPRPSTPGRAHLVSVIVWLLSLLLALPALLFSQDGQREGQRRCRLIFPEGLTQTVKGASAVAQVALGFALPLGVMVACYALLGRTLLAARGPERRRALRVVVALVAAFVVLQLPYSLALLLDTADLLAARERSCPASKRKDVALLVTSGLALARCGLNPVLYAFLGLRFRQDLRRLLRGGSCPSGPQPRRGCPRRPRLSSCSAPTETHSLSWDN

The next test concerns the target T4, CXCR2 (Homo sapiens, UniProt P25025).
T4 construct: expressed in transfected cells
T4 sequence (P25025 1-360): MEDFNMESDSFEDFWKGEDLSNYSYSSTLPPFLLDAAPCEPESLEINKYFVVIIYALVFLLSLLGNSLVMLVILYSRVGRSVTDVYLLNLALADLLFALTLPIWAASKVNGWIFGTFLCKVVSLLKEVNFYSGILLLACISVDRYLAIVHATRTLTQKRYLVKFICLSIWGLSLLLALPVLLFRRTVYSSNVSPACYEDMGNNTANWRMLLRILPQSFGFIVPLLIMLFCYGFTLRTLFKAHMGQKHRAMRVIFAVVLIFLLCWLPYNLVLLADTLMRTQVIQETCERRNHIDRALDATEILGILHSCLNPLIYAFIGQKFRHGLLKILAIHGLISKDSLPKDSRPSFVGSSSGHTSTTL

Another test concerns the target T5, CXCR3B (Homo sapiens, UniProt P49682).
T5 construct: expressed in transfected cells; host or cells: U87 cells
T5 sequence (P49682 1-415 isoform P49682-2): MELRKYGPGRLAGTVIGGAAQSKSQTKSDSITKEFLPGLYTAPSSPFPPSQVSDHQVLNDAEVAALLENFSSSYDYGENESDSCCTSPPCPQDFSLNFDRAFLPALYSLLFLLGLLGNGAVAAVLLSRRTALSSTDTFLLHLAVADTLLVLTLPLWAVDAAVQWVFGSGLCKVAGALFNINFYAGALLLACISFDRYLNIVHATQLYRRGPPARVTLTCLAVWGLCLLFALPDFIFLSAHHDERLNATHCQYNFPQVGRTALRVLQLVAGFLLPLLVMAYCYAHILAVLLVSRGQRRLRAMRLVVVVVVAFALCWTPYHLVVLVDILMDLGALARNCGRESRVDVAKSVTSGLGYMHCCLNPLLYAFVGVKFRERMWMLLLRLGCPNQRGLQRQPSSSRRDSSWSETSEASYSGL

The next test has as its target T6, CXCR5 (Homo sapiens, UniProt P32302).
T6 construct: expressed in transfected cells
T6 sequence (P32302 1-372): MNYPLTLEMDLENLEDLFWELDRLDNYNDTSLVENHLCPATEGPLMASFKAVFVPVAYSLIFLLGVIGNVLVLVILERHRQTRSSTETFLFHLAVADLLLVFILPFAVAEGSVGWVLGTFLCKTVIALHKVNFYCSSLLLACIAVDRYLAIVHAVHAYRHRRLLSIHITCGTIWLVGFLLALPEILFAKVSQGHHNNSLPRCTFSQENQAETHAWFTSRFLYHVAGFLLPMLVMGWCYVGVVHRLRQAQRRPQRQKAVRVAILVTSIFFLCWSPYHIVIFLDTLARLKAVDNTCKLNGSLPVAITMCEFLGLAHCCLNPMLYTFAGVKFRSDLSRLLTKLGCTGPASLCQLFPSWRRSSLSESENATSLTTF

In a further test the target is T7, ACKR2 (Homo sapiens, UniProt O00590).
T7 construct: expressed in transfected cells; host or cells: U87 cells (human glioblastoma)
T7 sequence (O00590 1-384): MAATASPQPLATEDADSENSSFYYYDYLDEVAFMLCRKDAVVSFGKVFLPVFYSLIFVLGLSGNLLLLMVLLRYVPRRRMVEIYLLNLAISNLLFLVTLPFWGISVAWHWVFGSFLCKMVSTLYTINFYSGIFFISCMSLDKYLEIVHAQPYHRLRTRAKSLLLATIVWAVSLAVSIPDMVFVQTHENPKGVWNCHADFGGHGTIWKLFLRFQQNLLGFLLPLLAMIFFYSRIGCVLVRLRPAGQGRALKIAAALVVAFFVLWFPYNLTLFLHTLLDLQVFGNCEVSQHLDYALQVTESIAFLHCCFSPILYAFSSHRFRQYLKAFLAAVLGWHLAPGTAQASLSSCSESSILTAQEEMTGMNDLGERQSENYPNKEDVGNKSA

Setting [1] is: replicate 1, read-out: CCR2 activity, ctrl+ = 100.
The mark [2] stands for this setting: replicate 2, read-out: CCR2 activity, ctrl+ = 100.
The mark [3] stands for this setting: replicate 1, read-out: CCR5 activity, ctrl+ = 100.
Where [4] appears, read: replicate 2, read-out: CCR5 activity, ctrl+ = 100.
[5] abbreviates: replicate 1, read-out: CCR10 activity, ctrl+ = 100.
[6] abbreviates: replicate 2, read-out: CCR10 activity, ctrl+ = 100.
Setting [7] is: replicate 1, read-out: CXCR2 activity, ctrl+ = 100.
[8] abbreviates: replicate 2, read-out: CXCR2 activity, ctrl+ = 100.
The mark [9] stands for this setting: replicate 1, read-out: CXCR3B activity, ctrl+ = 100.
Where [10] appears, read: replicate 2, read-out: CXCR3B activity, ctrl+ = 100.
Setting [11] is: replicate 1, read-out: CXCR5 activity, ctrl+ = 100.
The mark [12] stands for this setting: replicate 2, read-out: CXCR5 activity, ctrl+ = 100.
Where [13] appears, read: replicate 1, read-out: ACKR2 activity, ctrl+ = 100.
The mark [14] stands for this setting: replicate 2, read-out: ACKR2 activity, ctrl+ = 100.

Like-named read-outs stand apart in the source and are kept apart here.

T2 sequence (P51681 whole entry): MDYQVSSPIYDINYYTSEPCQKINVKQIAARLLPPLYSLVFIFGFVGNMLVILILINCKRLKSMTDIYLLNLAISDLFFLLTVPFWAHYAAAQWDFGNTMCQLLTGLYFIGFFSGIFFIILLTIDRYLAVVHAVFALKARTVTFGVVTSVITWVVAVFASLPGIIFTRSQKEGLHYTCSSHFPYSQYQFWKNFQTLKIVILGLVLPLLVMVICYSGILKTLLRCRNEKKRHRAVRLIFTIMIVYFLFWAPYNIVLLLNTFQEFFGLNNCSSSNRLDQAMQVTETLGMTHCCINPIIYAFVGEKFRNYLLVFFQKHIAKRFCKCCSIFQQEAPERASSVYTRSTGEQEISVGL

`NC(=O)[C@H](Cc1ccccc1)NC(=O)[C@H](Cc1c[nH]c2ccccc12)NC(=O)[C@@H]1CCCN1C(=O)[C@@H](N)Cc1ccc(O)cc1` [Endomorphin-1]: the activation was 0.794% at CCR2 (setting [1]); -3.22% at CCR2 (setting [2]); 0.726% on CCR5 (setting [3]); -0.866% at CCR5 (setting [4]); -5.29% at CCR10 (setting [5]); 7.53% at CCR10 (setting [6]). Further, the activation is 0.676% at CXCR2 (setting [7]); -3.23% at CXCR2 (setting [8]); -0.0115% at CXCR3B (setting [9]); 13% at CXCR3B (setting [10]); 1.35% on CXCR5 (setting [11]); -1.48% on CXCR5 (setting [12]). Further, the activation was -6% at ACKR2 (setting [13]) and 11.5% at ACKR2 (setting [14]).

`CC[C@H](C)[C@H](NC(=O)[C@H](CCCNC(=N)N)NC(=O)[C@H](CCCNC(=N)N)NC(=O)[C@H](CC(C)C)NC(=O)[C@H](Cc1ccccc1)NC(=O)CNC(=O)CN)C(=O)N[C@@H](CCCNC(=N)N)C(=O)N1CCC[C@H]1C(=O)N[C@@H](CCCCN)C(=O)N[C@@H](CC(C)C)C(=O)N[C@@H](CCCCN)C(=O)N[C@@H](Cc1c[nH]c2ccccc12)C(=O)N[C@@H](CC(=O)O)C(=O)N[C@@H](CC(N)=O)C(=O)N[C@@H](CCC(N)=O)C(=O)O` [Dynorphin 2-17]: the activation on CCR2 (setting [1]) was 0.747%; on CCR2 (setting [2]) it was -1.44%; on CCR5 (setting [3]) it was 1.32%; on CCR5 (setting [4]) it was -2.11%; on CCR10 (setting [5]) it was 0.214%; on CCR10 (setting [6]), -5.55%. Besides, the activation on CXCR2 (setting [7]) was -7.18%; at CXCR2 (setting [8]), -15.9%; at CXCR3B (setting [9]), -1.19%; on CXCR3B (setting [10]) it was -3.44%; on CXCR5 (setting [11]), -2.49%; at CXCR5 (setting [12]), -3.33%. In addition, the activation on ACKR2 (setting [13]) was 12.5%; at ACKR2 (setting [14]), -37.2%.

On to `CC(C)C[C@H](NC(=O)[C@H](Cc1ccccc1)NC(=O)CNC(=O)CNC(=O)[C@@H](N)Cc1ccc(O)cc1)C(=O)N[C@@H](CCCN=C(N)N)C(=O)N[C@@H](CCCN=C(N)N)C(=O)N[C@@H](CCC(N)=O)C(=O)N[C@@H](Cc1ccccc1)C(=O)N[C@@H](CCCCN)C(=O)N[C@H](C(=O)N[C@H](C(=O)N[C@H](C(=O)O)[C@@H](C)O)C(C)C)C(C)C` [Dynorphin B], for which the activation at CCR2 (setting [1]) was 0.688%; at CCR2 (setting [2]), -2.18%; at CCR2 (replicate 3, read-out: CCR2 activity, ctrl+ = 100), 1.67%; on CCR5 (setting [3]), 0.97%; on CCR5 (setting [4]) it was 0.0962%; at CCR5 (replicate 3, read-out: CCR5 activity, ctrl+ = 100) it was 1.82%. Further, the activation was -1.41% on CCR10 (setting [5]); -7.38% on CCR10 (setting [6]); 5.94% at CCR10 (replicate 3, read-out: CCR10 activity, ctrl+ = 100); 0.415% on CXCR2 (setting [7]); -10% on CXCR2 (setting [8]); 5.58% at CXCR2 (replicate 3, read-out: CXCR2 activity, ctrl+ = 100). For the same compound, the activation is -3.84% on CXCR3B (setting [9]); -0.0101% on CXCR3B (setting [10]); 0.918% on CXCR3B (replicate 3, read-out: CXCR3B activity, ctrl+ = 100); -2.46% at CXCR5 (setting [11]); -6.11% on CXCR5 (setting [12]); 11.3% on CXCR5 (replicate 3, read-out: CXCR5 activity, ctrl+ = 100). For the same compound, the activation on ACKR2 (setting [13]) is -36.9%; on ACKR2 (setting [14]), -27.9%; at ACKR2 (replicate 3, read-out: ACKR2 activity, ctrl+ = 100), -3.73%.

For `CC(C)C[C@H](NC(=O)[C@H](CCCCN)NC(=O)[C@H](CCCN=C(N)N)NC(=O)[C@H](C)NC(=O)[C@H](CO)NC(=O)[C@H](CCCCN)NC(=O)[C@H](CCCN=C(N)N)NC(=O)[C@H](C)NC(=O)CNC(=O)[C@@H](NC(=O)[C@H](Cc1ccccc1)NC(=O)CNC(=O)CNC(=O)[C@@H](N)Cc1ccccc1)[C@@H](C)O)C(=O)N[C@@H](C)C(=O)N[C@@H](CC(N)=O)C(=O)N[C@@H](CCC(N)=O)C(=O)O` [Nociceptin], the activation at CCR2 (setting [1]) is -0.0919%; on CCR2 (setting [2]), -3.09%; at CCR5 (setting [3]), 1.59%; at CCR5 (setting [4]), -0.199%; at CCR10 (setting [5]), -2.56%; on CCR10 (setting [6]) it was -4.7%. For the same compound, the activation at CXCR2 (setting [7]) is -2.08%; at CXCR2 (setting [8]) it was -14.7%; at CXCR3B (setting [9]), -0.23%; at CXCR3B (setting [10]) it was -6.64%; at CXCR5 (setting [11]), -2.94%; at CXCR5 (setting [12]), -7.28%. Moreover, the activation on ACKR2 (setting [13]) was -19.6%; at ACKR2 (setting [14]), -66.1%.

Consider `CC[C@H](C)[C@H](NC(=O)[C@H](CCCNC(=N)N)NC(=O)[C@H](CCCNC(=N)N)NC(=O)[C@H](CC(C)C)NC(=O)[C@H](Cc1ccccc1)NC(=O)CNC(=O)CNC(=O)[C@@H](N)Cc1ccc(O)cc1)C(=O)N[C@@H](CCCNC(=N)N)C(=O)N1CCC[C@H]1C(=O)N[C@@H](CCCCN)C(=O)N[C@@H](CC(C)C)C(=O)N[C@@H](CCCCN)C(=O)O` [Dynorphin 1-13], for which the activation on CCR2 (setting [1]) was -0.833%; at CCR2 (setting [2]), -2.52%; on CCR5 (setting [3]), -0.272%; on CCR5 (setting [4]), -1.44%; on CCR10 (setting [5]), -2.25%; at CCR10 (setting [6]), -4.52%. The activation is -2.31% on CXCR2 (setting [7]); -22.4% at CXCR2 (setting [8]); 3.92% at CXCR3B (setting [9]); -5.01% at CXCR3B (setting [10]); -0.575% at CXCR5 (setting [11]); -5.55% at CXCR5 (setting [12]). Further, the activation is -0.369% at ACKR2 (setting [13]) and -39.6% at ACKR2 (setting [14]).

The values above are taken from PMC7305236, “The atypical chemokine receptor ACKR3/CXCR7 is a broad-spectrum scavenger for opioid peptides” (Nature Communications, 2020).
